Columns and labels:
Spodoptera littoralis [1] = test: Antifeedant activity against final stadium larval stage of Spodoptera littoralis in compound pretreated glass fibre disks assessed as mass of disks eaten at 10 ppm by choice bioassay; assay type: functional
Spodoptera littoralis [2] = test: Antifeedant activity against final stadium larval stage of Spodoptera littoralis in compound pretreated glass fibre disks assessed as mass of disks eaten at 1 ppm by choice bioassay; assay type: functional

SMILES	AFI (Spodoptera littoralis [1]) [%]	AFI (Spodoptera littoralis [2]) [%]
C/C=C(\C)C(=O)O[C@H]1C[C@@H](OC(C)=O)[C@@]2(C(=O)OC)CO[C@H]3[C@H]4O[C@]5(C)[C@H](C6=CCOC6=O)C[C@H](O)[C@]5(O)[C@@]4(C)[C@H]4[C@]1(CO[C@]4(O)C(=O)OC)[C@@H]32	64	41
C/C=C(\C)C(=O)O[C@H]1C[C@@H](O)[C@@]23CO[C@@H]4[C@@H](O)[C@]5(C)[C@@H]([C@]1(COC2=O)[C@@H]43)[C@](O)(C(=O)OC)O[C@@]51[C@H]2C[C@H]3[C@]4(C=CO[C@H]4O2)O[C@]31C	16	22
C/C=C(\C)C(=O)O[C@H]1C[C@@H](OC(C)=O)[C@@]2(C(=O)OC)CO[C@H]3[C@@H](O)[C@@](C)([C@]45O[C@@]4(C)[C@H]4C[C@@H]5O[C@@H]5OCC[C@@]54O)[C@@H]4[C@@](OC)(C(=O)OC)OC[C@@]14[C@@H]32	100	100
CCC(C)C(=O)O[C@H]1C[C@@H](OC(C)=O)[C@@]2(C(=O)OC)CO[C@H]3[C@@H](O)[C@@](C)([C@]45O[C@@]4(C)[C@H]4C[C@@H]5O[C@@H]5OCC[C@@]54O)[C@@H]4[C@@](OC)(C(=O)OC)OC[C@@]14[C@@H]32 (some centres undefined)	100	98
C/C=C(\C)C(=O)O[C@H]1C[C@@H](OC(C)=O)[C@@]2(C(=O)OC)CO[C@H]3C(=O)[C@@](C)([C@]45O[C@@]4(C)[C@H]4C[C@@H]5O[C@@H]5OCC[C@@]54O)[C@@H]4[C@@](OC)(C(=O)OC)OC[C@@]14[C@@H]32	100	26
C/C=C(\C)C(=O)O[C@H]1C[C@@H](OC(C)=O)[C@@]2(C(=O)OC)CO[C@@H]3[C@@H]2[C@]12CO[C@](OC)(C(=O)OC)[C@H]2[C@](C)([C@]12O[C@@]1(C)[C@H]1C[C@@H]2O[C@@H]2OCC[C@@]21O)[C@H]3O	46	35
C/C=C(\C)C(=O)O[C@H]1C[C@@H](OC(C)=O)[C@@]2(C(=O)OC)CO[C@H]3C(=O)[C@@](C)([C@]45O[C@@]4(C)[C@H]4C[C@@H]5OC(=O)OCCC4=O)[C@@H]4[C@@](OC)(C(=O)OC)OC[C@@]14[C@@H]32	63	61
C/C=C(\C)C(=O)O[C@H]1C[C@@H](OC(C)=O)[C@@]2(C(=O)OC)CO[C@H]3[C@@H](O)[C@@](C)([C@]45O[C@@]4(C)[C@H]4C[C@@H]5O[C@@H]5OCC[C@@]54OC)[C@@H]4[C@@](OC)(C(=O)OC)OC[C@@]14[C@@H]32	95	66
C/C=C(\C)C(=O)O[C@H]1C[C@@H](OC(C)=O)[C@@]2(C(=O)OC)CO[C@H]3C(=O)[C@@](C)([C@]45O[C@@]4(C)[C@H]4C[C@@H]5O[C@@H]5OCC[C@@]54OC)[C@@H]4[C@@](OC)(C(=O)OC)OC[C@@]14[C@@H]32	100	29
C/C=C(\C)C(=O)O[C@H]1C[C@@H](OC(C)=O)[C@@]2(C(=O)OC)CO[C@@H]3[C@@H]2[C@]12CO[C@](OC)(C(=O)OC)[C@H]2[C@@]1(C)[C@@]32O[C@H]3C[C@@H]([C@@]4(OC)CCO[C@@H]4OC)[C@@](C)(O2)[C@]31O	31	33
C/C=C(\C)C(=O)O[C@H]1C[C@@H](OC(C)=O)[C@@]2(C(=O)OC)CO[C@H]3C(=O)[C@@](C)([C@]45O[C@@]4(C)[C@H]4C[C@@H]5O[C@@H]5OC=C[C@@]54O)[C@H]4[C@]1(CO[C@]4(O)C(=O)OC)[C@@H]32 [7-KETOAZADIRACHTIN]	23	21
C/C=C(\C)C(=O)O[C@H]1C[C@@H](OC(C)=O)[C@@]2(C(=O)OC)CO[C@H]3[C@@H](O)[C@@](C)([C@]45O[C@@]4(C)[C@@H]4C[C@H]5O[C@@H]5OC=C[C@@]54O)[C@H]4[C@]1(CO[C@]4(O)C(=O)OC)[C@@H]32 [AZADIRACHTIN A]	100	99

Reference: ChEMBL document CHEMBL3045980, “Chemistry of insect antifeedants from Azadirachta indica (part 11): Characterisation and structure activity relationships of some novel rearranged azadirachtins” (1991)
